SMILES strings stand for the structures. Some results are limits rather than exact numbers.

These results are taken from patent US10023558B2, “Compounds” (CHIESI FARMACEUTICI S.P.A., priority 2016, dated 2018).

For this test, the target named is T1, human neutrophil elastase (HNE) (Homo sapiens, UniProt P08246).
T1 construct: purchased Sigma E8140
T1 sequence (P08246 30-247 limits assumed): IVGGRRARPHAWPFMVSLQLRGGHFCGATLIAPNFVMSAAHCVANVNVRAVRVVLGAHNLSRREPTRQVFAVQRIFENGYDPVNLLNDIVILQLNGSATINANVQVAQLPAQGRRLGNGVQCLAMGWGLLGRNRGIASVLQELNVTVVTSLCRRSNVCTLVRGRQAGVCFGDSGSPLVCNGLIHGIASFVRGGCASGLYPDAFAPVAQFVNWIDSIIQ
The test is described as follows: HNE Enzyme Assay (fluorogenic peptide substrate MeOSuc-Ala-Ala-Pro-Val-AMC). The class given is biochemical. The following applies: human leukocyte elastase 0.00072 U/mL, substrate 100 μM, 25° C., 30 minutes, at least two separate experiments; read-out: HNE inhibition (IC50 values). How it is done:
Compounds of this invention were tested for potency in a human neutrophil elastase (HNE) enzyme activity assay.
Assays were performed in 96-well plates in a total assay volume of 100 μL. The final concentration of elastase enzyme (human leukocyte elastase, Sigma E8140) was 0.00072 U/mL. The peptide substrate (MeOSuc-Ala-Ala-Pro-Val-AMC, Calbiochem #324740) was used at a final concentration of 100 μM. The final concentration of DMSO was 1% in the assay buffer (0.05M Tris.HCl, 0.1M NaCl, 0.1M CaCl2, 0.0005% Brij-35, pH 7.5). The enzymatic reaction was started by addition of the enzyme and incubated at 25° C. for 30 minutes. After incubation, the reaction was stopped by addition of soybean trypsin inhibitor (Sigma T9003) at a final concentration of 50 μg/well. Fluorescence was measured using a Molecular Devices fluorescence plate reader using 380 nm excitation and 460 nm emission wavelengths.
A concentration response to each compound was performed and the effect of compound in each experiment was expressed as a percentage inhibition of the control enzyme fluorescence. Dose response curves were plotted and compound potency (IC50) was determined. Compounds were tested in at least two separate experiments.

As to `Cc1c(-c2ccnn2-c2ccc(C#N)cc2)n(C(=O)N[C@@H](C)c2ncc(C[N+](C)(C)C)o2)c(=O)n1-c1cccc(C(F)(F)F)c1` [Example 64, [2-((S)-1-{[5-[2-(4-Cyano-phenyl)-2H-pyrazol-3-yl]-4-methyl-2-oxo-3-(3-trifluoromethyl-phenyl)-2,3-dihydro-imidazole-1-carbonyl]-amino}-ethyl)-oxazol-5-ylmethyl]-trimethyl-ammonium benzene sulfonate], the IC50 was less than 1 nM.
The same measure for `Cc1c(-c2ccnn2-c2ccc(C#N)cc2)n(C(=O)N[C@H]2CC[C@H](C(=O)NC3CC[N+](C)(C)CC3)CC2)c(=O)n1-c1cccc(C(F)(F)F)c1` [Example 90, 4-[(Trans-4-{[5-[2-(4-cyano-phenyl)-2H-pyrazol-3-yl]-4-methyl-2-oxo-3-(3-trifluoromethyl-phenyl)-2,3-dihydro-imidazole-1-carbonyl]-amino}-cyclohexanecarbonyl)-amino]-1,1-dimethyl-piperidinium benzene sulfonate]: less than 1 nM; for `Cc1c(-c2ccnn2-c2ccc(C#N)cc2)n(C(=O)N[C@@H](C)c2ccc(CN(C)C)cc2)c(=O)n1-c1cccc(C(F)(F)F)c1` [Example 14, 5-[2-(4-Cyano-phenyl)-2H-pyrazol-3-yl]-4-methyl-2-oxo-3-(3-trifluoromethyl-phenyl)-2,3-dihydro-imidazole-1-carboxylic acid [(S)-1-(4-dimethylaminomethyl-phenyl)-ethyl]-amide]: less than 1 nM; for `Cc1cc(C[N+](C)(C)[C@H]2CC[C@H](NC(=O)n3c(-c4ccnn4-c4ccc(C#N)cc4)c(C)n(-c4cccc(C(F)(F)F)c4)c3=O)CC2)n(C)n1` [Example 76, (4-{[5-[2-(4-Cyano-phenyl)-2H-pyrazol-3-yl]-4-methyl-2-oxo-3-(3-trifluoromethyl-phenyl)-2,3-dihydro-imidazole-1-carbonyl]-amino}-cyclohexyl)-(2,5-dimethyl-2H-pyrazol-3-ylmethyl)-dimethyl-ammonium chloride]: less than 1 nM.
Next, `Cc1c(-c2ccnn2-c2ccc(C#N)cc2)n(C(=O)N[C@@H](C)c2ccncc2)c(=O)n1-c1cccc(C(F)(F)F)c1` [Example 5, 5-[2-(4-Cyano-phenyl)-2H-pyrazol-3-yl]-4-methyl-2-oxo-3-(3-trifluoromethyl-phenyl)-2,3-dihydro-imidazole-1-carboxylic acid ((S)-1-pyridin-4-yl-ethyl)-amide]: less than 1 nM; `Cc1c(-c2ccnn2-c2ccc(C#N)cc2)n(C(=O)N[C@@H]2C[C@@H]3C[N+](C)(C)C[C@@H]3C2)c(=O)n1-c1cccc(C(F)(F)F)c1` [Example 37, (3aS,5R,6aR)-5-{[5-[2-(4-Cyano-phenyl)-2H-pyrazol-3-yl]-4-methyl-2-oxo-3-(3-trifluoromethyl-phenyl)-2,3-dihydro-imidazole-1-carbonyl]-amino}-2,2-dimethyl-octahydro-cyclopenta[c]pyrrolium benzene sulfonate]: less than 1 nM; `Cc1c(-c2ccnn2-c2ccc(C#N)cc2)n(C(=O)N[C@@H](C)C(=O)N2CCC([N+](C)(C)C)CC2)c(=O)n1-c1cccc(C(F)(F)F)c1` [Example 69, [1-((S)-2-{[5-[2-(4-Cyano-phenyl)-2H-pyrazol-3-yl]-4-methyl-2-oxo-3-(3-trifluoromethyl-phenyl)-2,3-dihydro-imidazole-1-carbonyl]-amino}-propionyl)-piperidin-4-yl]-trimethyl-ammonium benzene sulfonate]: less than 1 nM.
The same measure for `Cc1c(-c2ccnn2-c2ccc(C#N)cc2)n(C(=O)NC2(c3ncc(C[N+](C)(C)C)o3)CC2)c(=O)n1-c1cccc(C(F)(F)F)c1` [Example 79, [2-(1-{[5-[2-(4-Cyano-phenyl)-2H-pyrazol-3-yl]-4-methyl-2-oxo-3-(3-trifluoromethyl-phenyl)-2,3-dihydro-imidazole-1-carbonyl]-amino}-cyclopropyl)-oxazol-5-ylmethyl]-trimethyl-ammonium benzene sulfonate]: less than 1 nM; for `Cc1c(-c2ccnn2-c2ccc(C#N)cc2)n(C(=O)N[C@@H](C)C(=O)N(C)C2CCN(C)CC2)c(=O)n1-c1cccc(C(F)(F)F)c1` [Example 28, 5-[2-(4-Cyano-phenyl)-2H-pyrazol-3-yl]-4-methyl-2-oxo-3-(3-trifluoromethyl-phenyl)-2,3-dihydro-imidazole-1-carboxylic acid {(S)-1-[methyl-(1-methyl-piperidin-4-yl)-carbamoyl]-ethyl}-amide]: less than 1 nM.
`Cc1c(-c2ccnn2-c2ccc(C#N)cc2)n(C(=O)N[C@@H](C)C(=O)N(C)CC2CCN(C)CC2)c(=O)n1-c1cccc(C(F)(F)F)c1` [Example 18, 5-[2-(4-Cyano-phenyl)-2H-pyrazol-3-yl]-4-methyl-2-oxo-3-(3-trifluoromethyl-phenyl)-2,3-dihydro-imidazole-1-carboxylic acid {(S)-1-[methyl-(1-methyl-piperidin-4-ylmethyl)-carbamoyl]-ethyl}-amide]: the 50% inhibitory concentration (IC50) was less than 1 nM.
Next, `Cc1c(-c2ccnn2-c2ccc(C#N)cc2)n(C(=O)N[C@H]2CC[C@H](CNC(=O)C[N+](C)(C)C)CC2)c(=O)n1-c1cccc(C(F)(F)F)c1` [Example 86, {[(Trans-4-{[5-[2-(4-cyano-phenyl)-2H-pyrazol-3-yl]-4-methyl-2-oxo-3-(3-trifluoromethyl-phenyl)-2,3-dihydro-imidazole-1-carbonyl]-amino}-cyclohexylmethyl)-carbamoyl]-methyl}-trimethyl-ammonium benzene sulfonate]: less than 1 nM; `Cc1c(-c2ccnn2-c2ccc(C#N)cc2)n(C(=O)N[C@H]2CC[C@H](NC(=O)CN(C)C)CC2)c(=O)n1-c1cccc(C(F)(F)F)c1` [Example 26, 5-[2-(4-Cyano-phenyl)-2H-pyrazol-3-yl]-4-methyl-2-oxo-3-(3-trifluoromethyl-phenyl)-2,3-dihydro-imidazole-1-carboxylic acid [trans-4-(2-dimethylamino-acetylamino)-cyclohexyl]-amide]: less than 1 nM; `Cc1c(-c2ccnn2-c2ccc(C#N)cc2)n(C(=O)N[C@H](c2ncc(CN(C)C)o2)C(C)C)c(=O)n1-c1cccc(C(F)(F)F)c1` [Example 21, 5-[2-(4-Cyano-phenyl)-2H-pyrazol-3-yl]-4-methyl-2-oxo-3-(3-trifluoromethyl-phenyl)-2,3-dihydro-imidazole-1-carboxylic acid [(S)-1-(5-dimethylaminomethyl-oxazol-2-yl)-2-methyl-propyl]-amide]: less than 1 nM.
Next, `Cc1c(-c2ccnn2-c2ccc(C#N)cc2)n(C(=O)N[C@H]2CC[N+](C)(C)C2)c(=O)n1-c1cccc(C(F)(F)F)c1` [Example 34, (S)-3-{[5-[2-(4-Cyano-phenyl)-2H-pyrazol-3-yl]-4-methyl-2-oxo-3-(3-trifluoromethyl-phenyl)-2,3-dihydro-imidazole-1-carbonyl]-amino}-1,1-dimethyl-pyrrolidinium benzenesulfonate]: less than 1 nM; `Cc1c(-c2ccnn2-c2ccc(C#N)cc2)n(C(=O)N[C@H]2CC[C@H](CN(C)C)CC2)c(=O)n1-c1cccc(C(F)(F)F)c1` [Example 1, 5-[2-(4-Cyano-phenyl)-2H-pyrazol-3-yl]-4-methyl-2-oxo-3-(3-trifluoromethyl-phenyl)-2,3-dihydro-imidazole-1-carboxylic acid trans-(4-dimethylaminomethyl-cyclohexyl)-amide]: less than 1 nM.
Take `Cc1c(-c2ccnn2-c2ccc(C#N)cc2)n(C(=O)NC2CCN(C(=O)CN(C)C)CC2)c(=O)n1-c1cccc(C(F)(F)F)c1` [Example 17, 5-[2-(4-Cyano-phenyl)-2H-pyrazol-3-yl]-4-methyl-2-oxo-3-(3-trifluoromethyl-phenyl)-2,3-dihydro-imidazole-1-carboxylic acid [1-(2-dimethylamino-acetyl)-piperidin-4-yl]-amide]: the IC50 is less than 1 nM.
Next, `Cc1c(-c2ccnn2-c2ccc(C#N)cc2)n(C(=O)N[C@@H](C)c2ccc(C[N+](C)(C)C)cc2)c(=O)n1-c1cccc(C(F)(F)F)c1` [Example 58, [4-((S)-1-{[5-[2-(4-Cyano-phenyl)-2H-pyrazol-3-yl]-4-methyl-2-oxo-3-(3-trifluoromethyl-phenyl)-2,3-dihydro-imidazole-1-carbonyl]-amino}-ethyl)-benzyl]-trimethyl-ammonium benzene sulfonate]: less than 1 nM; `Cc1c(-c2ccnn2-c2ccc(C#N)cc2)n(C(=O)N[C@@H](C)C(=O)N2CC[N+](C)(Cc3ccccc3)CC2)c(=O)n1-c1cccc(C(F)(F)F)c1` [Example 49, 1-Benzyl-4-((S)-2-{[5-[2-(4-cyano-phenyl)-2H-pyrazol-3-yl]-4-methyl-2-oxo-3-(3-trifluoromethyl-phenyl)-2,3-dihydro-imidazole-1-carbonyl]-amino}-propionyl)-1-methyl-piperazin-1-ium bromide]: less than 1 nM.

Usually IC50 stands for the concentration at which inhibition is half-maximal.
